Laboratory results from PubChem BioAssay (NCI).
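Five compound concentrations were applied to cells in 96-well plates for 48 hours; endpoints were derived by simple linear interpolation of the resulting dose-response curve. The concentration for full growth arrest is given as TGI.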

Tests used:
Test in all cases: NCI anticancer screen, dose series, 48 h
A498 renal = system: A498 renal
A549 NSCLC = system: A549 NSCLC
ACHN renal = system: ACHN renal
CAKI-1 renal = system: CAKI-1 renal
CCRF-CEM leukemia = system: CCRF-CEM leukemia
COLO 205 colon = system: COLO 205 colon
DU-145 prostate = system: DU-145 prostate
EKVX NSCLC = system: EKVX NSCLC
HCC-2998 colon = system: HCC-2998 colon
HCT-15 colon = system: HCT-15 colon
HL-60(TB) leukemia = system: HL-60(TB) leukemia
HOP-62 NSCLC = system: HOP-62 NSCLC
HOP-92 NSCLC = system: HOP-92 NSCLC
HS 578T breast = system: HS 578T breast
HT29 colon = system: HT29 colon
IGROV1 ovarian = system: IGROV1 ovarian
K-562 leukemia = system: K-562 leukemia
KM12 colon = system: KM12 colon
LOX IMVI melanoma = system: LOX IMVI melanoma
M14 melanoma = system: M14 melanoma
MCF7 breast = system: MCF7 breast
MDA-MB-231 breast = system: MDA-MB-231 breast
MDA-MB-435 = system: MDA-MB-435
MDA-N = system: MDA-N
MOLT-4 leukemia = system: MOLT-4 leukemia
NCI-H23 lung = system: NCI-H23 lung
NCI-H460 lung = system: NCI-H460 lung
NCI/ADR-RES ovarian = system: NCI/ADR-RES ovarian
OVCAR-3 ovarian = system: OVCAR-3 ovarian
OVCAR-4 ovarian = system: OVCAR-4 ovarian
OVCAR-5 ovarian = system: OVCAR-5 ovarian
OVCAR-8 ovarian = system: OVCAR-8 ovarian
PC-3 prostate = system: PC-3 prostate
RPMI-8226 leukemia = system: RPMI-8226 leukemia
RXF 393 renal = system: RXF 393 renal
SF-268 CNS = system: SF-268 CNS
SF-295 CNS = system: SF-295 CNS
SF-539 CNS = system: SF-539 CNS
SK-MEL-2 melanoma = system: SK-MEL-2 melanoma
SK-MEL-28 melanoma = system: SK-MEL-28 melanoma
SK-MEL-5 melanoma = system: SK-MEL-5 melanoma
SK-OV-3 ovarian = system: SK-OV-3 ovarian
SNB-19 CNS = system: SNB-19 CNS
SNB-75 CNS = system: SNB-75 CNS
SW-620 colon = system: SW-620 colon
T-47D breast = system: T-47D breast
TK-10 renal = system: TK-10 renal
U251 CNS = system: U251 CNS
UACC-257 melanoma = system: UACC-257 melanoma
UACC-62 melanoma = system: UACC-62 melanoma
UO-31 renal = system: UO-31 renal
786-0 renal = system: 786-0 renal
BT-549 breast = system: BT-549 breast
HCT-116 colon = system: HCT-116 colon
MALME-3M melanoma = system: MALME-3M melanoma
NCI-H226 lung = system: NCI-H226 lung
SN12C renal = system: SN12C renal
SR leukemia = system: SR leukemia
NCI-H522 lung = system: NCI-H522 lung

Measured: TGI

CCOC(=O)c1csc(NC(=O)CN2CCCCC2)n1
> 100 µM: A498 renal | A549 NSCLC | ACHN renal | CAKI-1 renal | CCRF-CEM leukemia | COLO 205 colon | DU-145 prostate | EKVX NSCLC | HCC-2998 colon | HCT-15 colon | HL-60(TB) leukemia | HOP-62 NSCLC | HOP-92 NSCLC | HS 578T breast | HT29 colon | IGROV1 ovarian | K-562 leukemia | KM12 colon | LOX IMVI melanoma | M14 melanoma | MCF7 breast | MDA-MB-231 breast | MDA-MB-435 | MDA-N | MOLT-4 leukemia | NCI-H23 lung | NCI-H460 lung | NCI/ADR-RES ovarian | OVCAR-3 ovarian | OVCAR-4 ovarian | OVCAR-5 ovarian | OVCAR-8 ovarian | PC-3 prostate | RPMI-8226 leukemia | RXF 393 renal | SF-268 CNS | SF-295 CNS | SF-539 CNS | SK-MEL-2 melanoma | SK-MEL-28 melanoma | SK-MEL-5 melanoma | SK-OV-3 ovarian | SNB-19 CNS | SNB-75 CNS | SW-620 colon | T-47D breast | TK-10 renal | U251 CNS | UACC-257 melanoma | UACC-62 melanoma | UO-31 renal

CCOC(=O)c1[nH]c2cccc3c2c1CC(Br)C3=O (configuration not stated)
38.2 µM: A549 NSCLC
30.1 µM: U251 CNS
47.8 µM: NCI-H460 lung
24.9 µM: MDA-N
7.79 µM: HCT-116 colon
6.33 µM: MOLT-4 leukemia
32.1 µM: BT-549 breast
32.6 µM: SF-295 CNS
4.99 µM: SR leukemia
26.2 µM: OVCAR-3 ovarian
32.9 µM: SF-268 CNS
29.8 µM: HCC-2998 colon
25.2 µM: MDA-MB-435
30.9 µM: SN12C renal
30.7 µM: SNB-19 CNS
28.2 µM: MALME-3M melanoma
5.41 µM: SW-620 colon
41.5 µM: OVCAR-8 ovarian
28.1 µM: TK-10 renal
35.9 µM: NCI-H23 lung
26.7 µM: RPMI-8226 leukemia
17.3 µM: 786-0 renal
30.4 µM: DU-145 prostate | SF-539 CNS
54.7 µM: SK-OV-3 ovarian
27.2 µM: COLO 205 colon | M14 melanoma
34.5 µM: OVCAR-5 ovarian
20.2 µM: ACHN renal
33.6 µM: HOP-62 NSCLC | HOP-92 NSCLC | MDA-MB-231 breast
40.9 µM: T-47D breast
33 µM: PC-3 prostate
23.6 µM: CAKI-1 renal
18.8 µM: HCT-15 colon
47.7 µM: HT29 colon
10.7 µM: HL-60(TB) leukemia
30.3 µM: NCI/ADR-RES ovarian
37.2 µM: NCI-H226 lung
84.3 µM: MCF7 breast
33.1 µM: SK-MEL-5 melanoma
32.2 µM: EKVX NSCLC
31.8 µM: LOX IMVI melanoma
19.2 µM: UO-31 renal
32.3 µM: A498 renal
38.4 µM: SK-MEL-28 melanoma
28.6 µM: UACC-257 melanoma
20.4 µM: IGROV1 ovarian
> 100 µM: CCRF-CEM leukemia
30.5 µM: KM12 colon

COC(=O)/C=C/COCC1C2CCC(=O)C21 (configuration not stated)
> 100 µM: 786-0 renal | A549 NSCLC | ACHN renal | BT-549 breast | CCRF-CEM leukemia | COLO 205 colon | DU-145 prostate | EKVX NSCLC | HCC-2998 colon | HCT-116 colon | HCT-15 colon | HOP-62 NSCLC | HOP-92 NSCLC | HT29 colon | IGROV1 ovarian | K-562 leukemia | KM12 colon | LOX IMVI melanoma | M14 melanoma | MALME-3M melanoma | MCF7 breast | MDA-MB-231 breast | MDA-MB-435 | MDA-N | MOLT-4 leukemia | NCI-H226 lung | NCI-H23 lung | NCI-H460 lung | NCI-H522 lung | NCI/ADR-RES ovarian | OVCAR-3 ovarian | OVCAR-4 ovarian | OVCAR-5 ovarian | OVCAR-8 ovarian | PC-3 prostate | RPMI-8226 leukemia | RXF 393 renal | SF-268 CNS | SF-295 CNS | SF-539 CNS | SK-MEL-2 melanoma | SK-MEL-28 melanoma | SK-MEL-5 melanoma | SK-OV-3 ovarian | SN12C renal | SNB-19 CNS | SNB-75 CNS | SR leukemia | SW-620 colon | TK-10 renal | U251 CNS | UACC-257 melanoma | UACC-62 melanoma | UO-31 renal
51.5 µM: CAKI-1 renal
